Here are results for 14 molecules from patent publication US9637483B2, “Heterocyclic compound” (TAKEDA PHARMACEUTICAL COMPANY LIMITED, priority 2013, dated 2017).

Holding throughout (type): biochemical
In one assay the target is T1, JAK1 (Homo sapiens, UniProt P23458).
T1 construct: purchased Invitrogen
The experiment in a line: JAK1 enzyme inhibition test (LANCE method). The settings on record: 1 μM test compound; for inhibition at 1 µM: read-out: JAK1 enzyme inhibitory activity (%, 1 μM). A digest of the protocol:
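Inhibition expressed against no-enzyme wells (100% inhibition), from time-resolved fluorescence at 665 nm after Eu-anti-phosphotyrosine antibody/EDTA detection. Kinase reaction ran 1 h at room temperature, pH 7.5 HEPES buffer, ULight-JAK1 substrate and ATP diluted to 300 nM and 150 μM before addition.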

The next assay concerns the target T2, JAK2 (Homo sapiens, UniProt O60674).
T2 construct: purchased Invitrogen
The experiment in a line: JAK2 enzyme inhibition test (LANCE method). To be noted: 1 μM test compound; for inhibition at 1 µM: read-out: JAK2 enzyme inhibitory activity (%, 1 μM). A digest of the protocol:
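TR-FRET (LANCE) read-out, ex 340/em 665 nm with 100 μs delay, after 1 hr room-temperature detection with europium anti-phosphotyrosine antibody and 20 mM EDTA. The preceding 1 hr kinase reaction combined JAK2, ULight-JAK1 substrate and ATP, added as 6 ng/mL, 300 nM and 45 μM solutions; enzyme-free wells defined 100% inhibition.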

Another assay deals with T3, JAK3 (Homo sapiens, UniProt P52333).
T3 construct: purchased Invitrogen
T3 sequence (P52333 1-1124): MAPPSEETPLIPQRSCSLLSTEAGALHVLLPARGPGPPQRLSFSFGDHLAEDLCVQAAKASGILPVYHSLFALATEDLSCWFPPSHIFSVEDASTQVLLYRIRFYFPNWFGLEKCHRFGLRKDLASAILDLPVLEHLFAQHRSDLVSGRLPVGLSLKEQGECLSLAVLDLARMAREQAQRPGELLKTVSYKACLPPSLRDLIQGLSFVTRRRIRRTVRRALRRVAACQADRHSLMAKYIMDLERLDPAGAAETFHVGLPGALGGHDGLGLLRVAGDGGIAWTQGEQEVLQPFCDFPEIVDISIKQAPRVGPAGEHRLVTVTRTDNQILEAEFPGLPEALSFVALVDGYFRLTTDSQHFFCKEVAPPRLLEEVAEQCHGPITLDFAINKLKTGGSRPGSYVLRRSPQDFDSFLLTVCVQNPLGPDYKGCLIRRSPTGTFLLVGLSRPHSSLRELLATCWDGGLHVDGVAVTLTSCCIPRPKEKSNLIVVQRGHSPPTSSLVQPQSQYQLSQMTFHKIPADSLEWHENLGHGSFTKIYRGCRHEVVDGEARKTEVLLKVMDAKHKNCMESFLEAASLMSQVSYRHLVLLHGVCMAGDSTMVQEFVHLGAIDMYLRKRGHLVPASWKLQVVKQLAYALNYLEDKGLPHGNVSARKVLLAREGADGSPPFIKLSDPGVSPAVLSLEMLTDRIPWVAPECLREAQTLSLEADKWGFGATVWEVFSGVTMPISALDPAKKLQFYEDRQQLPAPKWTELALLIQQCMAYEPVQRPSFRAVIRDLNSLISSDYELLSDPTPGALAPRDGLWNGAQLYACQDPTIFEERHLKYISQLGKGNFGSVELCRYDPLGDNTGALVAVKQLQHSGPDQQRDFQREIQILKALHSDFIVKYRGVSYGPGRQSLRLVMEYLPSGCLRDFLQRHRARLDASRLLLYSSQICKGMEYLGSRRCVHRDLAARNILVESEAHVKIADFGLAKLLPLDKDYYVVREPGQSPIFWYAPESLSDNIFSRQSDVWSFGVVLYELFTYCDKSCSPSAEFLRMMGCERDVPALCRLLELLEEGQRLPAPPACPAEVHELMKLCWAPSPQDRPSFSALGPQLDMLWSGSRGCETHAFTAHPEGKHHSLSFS
The experiment in a line: JAK3 enzyme inhibition test (LANCE method). To be noted: 1 μM test compound; for inhibition at 1 µM: read-out: JAK3 enzyme inhibitory activity (%, 1 μM). A digest of the protocol:
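TR-FRET (LANCE) read: 1 h room-temperature reaction, EDTA quench, Eu-anti-phosphotyrosine antibody, emission 665 nm after 340 nm excitation. Added solutions held 12 ng/mL JAK3, 300 nM ULight-JAK1 substrate and 15 μM ATP (pH 7.5 HEPES). Activity expressed against no-enzyme wells defined as full inhibition.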

A further assay has as its target T4, TYK2 (Homo sapiens, UniProt P29597).
T4 construct: purchased Invitrogen
Kind of assay: TYK2 enzyme inhibition test (LANCE method). To be noted: 1 μM test compound; for inhibition at 1 µM: read-out: TYK2 enzyme inhibitory activity (%, 1 μM). A digest of the protocol: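 TR-FRET (LANCE) readout: after 1 h room-temperature kinase reaction, EDTA plus 4 nM Eu-labelled anti-phosphotyrosine antibody added, signal at 665 nm (340 nm excitation). Reaction combined TYK2, ULight-JAK1 substrate and ATP, prepared at 375 ng/mL, 300 nM and 30 μM before addition, in pH 7.5 HEPES/MgCl2 buffer; enzyme-free wells define full inhibition.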

T4 sequence (P29597 whole entry): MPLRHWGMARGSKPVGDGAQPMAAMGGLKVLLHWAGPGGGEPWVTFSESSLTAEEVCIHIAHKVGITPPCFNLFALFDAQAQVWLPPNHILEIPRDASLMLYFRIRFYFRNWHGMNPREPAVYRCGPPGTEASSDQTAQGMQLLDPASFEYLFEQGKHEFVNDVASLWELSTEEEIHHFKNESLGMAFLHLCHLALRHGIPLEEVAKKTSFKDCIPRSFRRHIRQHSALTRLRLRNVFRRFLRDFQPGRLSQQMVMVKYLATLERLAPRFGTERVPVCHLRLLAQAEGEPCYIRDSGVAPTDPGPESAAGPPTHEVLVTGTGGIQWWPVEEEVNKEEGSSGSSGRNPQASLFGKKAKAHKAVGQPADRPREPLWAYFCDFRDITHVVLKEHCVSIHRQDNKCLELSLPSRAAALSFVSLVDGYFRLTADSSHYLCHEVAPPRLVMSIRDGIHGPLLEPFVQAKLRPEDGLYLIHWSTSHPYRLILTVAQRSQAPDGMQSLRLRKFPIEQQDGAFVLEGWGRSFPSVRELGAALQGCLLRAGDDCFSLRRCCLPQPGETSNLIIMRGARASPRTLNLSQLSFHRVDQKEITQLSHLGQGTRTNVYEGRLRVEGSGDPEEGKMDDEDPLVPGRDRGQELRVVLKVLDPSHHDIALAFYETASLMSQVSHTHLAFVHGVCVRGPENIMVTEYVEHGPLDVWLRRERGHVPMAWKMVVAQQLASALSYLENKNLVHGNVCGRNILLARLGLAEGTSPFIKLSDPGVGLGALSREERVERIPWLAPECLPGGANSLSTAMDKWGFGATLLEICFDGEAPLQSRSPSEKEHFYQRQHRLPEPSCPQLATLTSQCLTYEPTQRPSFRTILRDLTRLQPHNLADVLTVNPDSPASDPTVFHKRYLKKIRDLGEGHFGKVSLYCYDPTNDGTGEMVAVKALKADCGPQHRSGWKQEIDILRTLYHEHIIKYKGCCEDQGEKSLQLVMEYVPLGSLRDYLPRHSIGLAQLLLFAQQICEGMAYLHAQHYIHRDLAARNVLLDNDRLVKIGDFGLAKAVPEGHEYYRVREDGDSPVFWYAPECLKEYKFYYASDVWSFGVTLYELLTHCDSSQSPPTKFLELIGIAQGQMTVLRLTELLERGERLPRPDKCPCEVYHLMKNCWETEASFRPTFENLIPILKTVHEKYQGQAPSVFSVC
T2 sequence (O60674 whole entry): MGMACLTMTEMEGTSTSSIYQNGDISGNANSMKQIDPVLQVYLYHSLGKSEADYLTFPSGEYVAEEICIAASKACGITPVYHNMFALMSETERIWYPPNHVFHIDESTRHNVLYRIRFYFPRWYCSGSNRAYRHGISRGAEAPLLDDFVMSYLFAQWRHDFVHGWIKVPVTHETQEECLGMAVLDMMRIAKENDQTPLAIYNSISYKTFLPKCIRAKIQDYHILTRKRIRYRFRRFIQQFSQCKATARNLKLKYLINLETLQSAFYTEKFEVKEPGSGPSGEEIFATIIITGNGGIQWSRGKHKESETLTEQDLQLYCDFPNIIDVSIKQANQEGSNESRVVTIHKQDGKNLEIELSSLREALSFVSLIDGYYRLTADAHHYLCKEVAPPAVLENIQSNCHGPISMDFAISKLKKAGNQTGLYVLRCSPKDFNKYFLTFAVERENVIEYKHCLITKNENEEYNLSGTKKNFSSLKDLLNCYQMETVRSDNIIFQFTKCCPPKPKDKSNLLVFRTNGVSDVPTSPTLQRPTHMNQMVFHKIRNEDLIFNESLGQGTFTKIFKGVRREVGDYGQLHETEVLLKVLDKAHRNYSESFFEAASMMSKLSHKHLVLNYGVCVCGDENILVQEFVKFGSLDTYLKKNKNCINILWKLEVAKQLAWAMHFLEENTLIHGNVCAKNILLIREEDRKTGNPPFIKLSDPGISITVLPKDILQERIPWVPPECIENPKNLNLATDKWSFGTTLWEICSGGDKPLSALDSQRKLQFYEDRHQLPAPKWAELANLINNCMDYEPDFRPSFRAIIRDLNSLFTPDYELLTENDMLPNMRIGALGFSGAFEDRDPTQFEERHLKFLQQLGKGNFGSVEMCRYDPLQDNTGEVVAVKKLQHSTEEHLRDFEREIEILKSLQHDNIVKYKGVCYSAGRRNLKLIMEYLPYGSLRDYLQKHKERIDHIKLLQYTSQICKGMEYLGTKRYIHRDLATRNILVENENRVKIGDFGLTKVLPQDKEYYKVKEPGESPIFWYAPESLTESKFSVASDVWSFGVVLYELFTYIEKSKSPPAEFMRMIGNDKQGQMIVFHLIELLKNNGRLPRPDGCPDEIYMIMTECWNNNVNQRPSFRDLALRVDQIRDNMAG
T1 sequence (P23458 whole entry): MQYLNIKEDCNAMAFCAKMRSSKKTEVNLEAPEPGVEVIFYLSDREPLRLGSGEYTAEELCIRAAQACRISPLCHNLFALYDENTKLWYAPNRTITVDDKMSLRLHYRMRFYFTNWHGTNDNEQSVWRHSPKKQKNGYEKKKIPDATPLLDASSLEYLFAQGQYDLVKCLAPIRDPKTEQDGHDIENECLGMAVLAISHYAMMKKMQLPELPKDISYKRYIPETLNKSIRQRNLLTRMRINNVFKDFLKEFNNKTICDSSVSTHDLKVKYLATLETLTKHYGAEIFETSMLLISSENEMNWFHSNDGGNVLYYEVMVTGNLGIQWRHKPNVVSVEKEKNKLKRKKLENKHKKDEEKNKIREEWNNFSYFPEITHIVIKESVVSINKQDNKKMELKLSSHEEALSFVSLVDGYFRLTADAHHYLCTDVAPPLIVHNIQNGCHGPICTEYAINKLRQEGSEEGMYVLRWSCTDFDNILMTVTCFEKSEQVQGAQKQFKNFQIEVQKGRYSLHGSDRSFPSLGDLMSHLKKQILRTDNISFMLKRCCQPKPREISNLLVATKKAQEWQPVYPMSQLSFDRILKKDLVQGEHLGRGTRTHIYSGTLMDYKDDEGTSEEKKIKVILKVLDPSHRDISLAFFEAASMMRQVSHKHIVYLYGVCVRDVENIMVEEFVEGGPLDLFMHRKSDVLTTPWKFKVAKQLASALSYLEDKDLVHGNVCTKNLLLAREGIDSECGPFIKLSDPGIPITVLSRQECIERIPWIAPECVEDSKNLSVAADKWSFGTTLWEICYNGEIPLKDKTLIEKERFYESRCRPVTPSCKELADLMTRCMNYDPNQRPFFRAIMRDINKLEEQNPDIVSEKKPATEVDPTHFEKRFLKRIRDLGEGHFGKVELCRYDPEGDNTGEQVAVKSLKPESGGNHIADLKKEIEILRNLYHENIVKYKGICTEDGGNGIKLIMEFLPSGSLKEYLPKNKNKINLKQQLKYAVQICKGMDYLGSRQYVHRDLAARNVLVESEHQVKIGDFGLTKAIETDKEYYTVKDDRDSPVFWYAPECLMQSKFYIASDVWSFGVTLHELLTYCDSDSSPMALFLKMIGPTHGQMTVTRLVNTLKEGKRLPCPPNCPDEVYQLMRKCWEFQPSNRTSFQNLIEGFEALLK

Consider `CO[C@H]1CCN(c2cc(-c3cn([C@@H](C)C(C)C)c(=O)c4c(N)n[nH]c34)nn2C)C1` [Example 25, 3-amino-7-(5-((3S)-3-methoxypyrrolidin-1-yl)-1-methyl-1H-pyrazol-3-yl)-5-((2S)-3-methylbutan-2-yl)-1,5-dihydro-4H-pyrazolo[4,3-c]pyridin-4-one], for which the inhibition at 1 µM at JAK1 was determined as 98%; on JAK2, 98%; at JAK3, 99%; at TYK2 it was 100%.

Regarding `CC(C)[C@H](C)n1cc(-c2cc(N3CCN4CCCC4C3)n(C)n2)c2[nH]nc(N)c2c1=O` (stereo partly drawn) [Example 62, 3-amino-7-(5-(hexahydropyrrolo[1,2-a]pyrazin-2 (H)-yl)-1-methyl-1H-pyrazol-3-yl)-5-((2S)-3-methylbutan-2-yl)-1,5-dihydro-4H-pyrazolo[4,3-c]pyridin-4-one], the “JAK1 enzyme inhibitory activity (%, 1 μM)” value at JAK1 came out at 97%. Moreover, the “JAK2 enzyme inhibitory activity (%, 1 μM)” value at JAK2 came out at 99%. The “JAK3 enzyme inhibitory activity (%, 1 μM)” value at JAK3 (1 µM) came to 99%. Moreover, the “TYK2 enzyme inhibitory activity (%, 1 μM)” value at TYK2 was 99%.

As for `Cn1nc(-c2cn(-c3c(F)cccc3F)c(=O)c3c(N)n[nH]c23)cc1N1CCOCC1` [Example 143, 3-amino-5-(2,6-difluorophenyl)-7-(1-methyl-5-(morpholin-4-yl)-1H-pyrazol-3-yl)-1,5-dihydro-4H-pyrazolo[4,3-c]pyridin-4-one], the inhibition at 1 µM was found to be 99% on JAK1, 98% on JAK2, 99% at JAK3 and 100% at TYK2.

Consider `CC(C)[C@H](C)n1cc(-c2cc(C3=CCOCC3)n(C)n2)c2[nH]nc(N)c2c1=O` [Example 39, 3-amino-7-(5-(3,6-dihydro-2H-pyran-4-yl)-1-methyl-1H-pyrazol-3-yl)-5-((2S)-3-methylbutan-2-yl)-1,5-dihydro-4H-pyrazolo[4,3-c]pyridin-4-one], for which the inhibition at 1 µM at JAK1 came to 99%; on JAK2, 99%; at JAK3 it was 100%; at TYK2, 100%.

With `CC(C)C(C#N)n1cc(-c2cc(N3CCOCC3)n(C)n2)c2[nH]nc(N)c2c1=O` (centres unmarked) [Example 113, 2-(3-amino-7-(1-methyl-5-(morpholin-4-yl)-1H-pyrazol-3-yl)-4-oxo-1,4-dihydro-5H-pyrazolo[4,3-c]pyridin-5-yl)-3-methylbutanenitrile], the “JAK1 enzyme inhibitory activity (%, 1 μM)” value on JAK1 is reported as 97%. The “JAK2 enzyme inhibitory activity (%, 1 μM)” value on JAK2 stood at 98%. Moreover, the inhibition at 1 µM at JAK3 and at TYK2 was 99% throughout.

Regarding `Cn1nc(-c2cn(-c3c(F)cccc3C#N)c(=O)c3c(N)n[nH]c23)cc1N1CCOCC1` [Example 67, 2-(3-amino-7-(1-methyl-5-(morpholin-4-yl)-1H-pyrazol-3-yl)-4-oxo-1,4-dihydro-5H-pyrazolo[4,3-c]pyridin-5-yl)-3-fluorobenzonitrile], the inhibition at 1 µM came out at 98% at JAK1, 97% on JAK2, 99% at JAK3 and 100% on TYK2.

In the case of `Cn1nc(-c2cn(C(C3CC3)C3CC3)c(=O)c3c(N)n[nH]c23)cc1N1CC[C@H](O)C1` [Example 166, 3-amino-5-(dicyclopropylmethyl)-7-(5-((3S)-3-hydroxypyrrolidin-1-yl)-1-methyl-1H-pyrazol-3-yl)-1,5-dihydro-4H-pyrazolo[4,3-c]pyridin-4-one], the inhibition at 1 µM came to 100% on JAK1, 99% on JAK2, 100% at JAK3 and 101% on TYK2.

Regarding `CC(C)[C@H](C)n1cc(-c2cc(N3CCC4(CC3)COC4)n(C)n2)c2[nH]nc(N)c2c1=O` [Example 34, 3-amino-5-((2S)-3-methylbutan-2-yl)-7-(1-methyl-5-(2-oxa-7-azaspiro[3.5]non-7-yl)-1H-pyrazol-3-yl)-1,5-dihydro-4H-pyrazolo[4,3-c]pyridin-4-one], the inhibition at 1 µM is 97% on JAK1, 99% on JAK2, 100% at JAK3 and 100% on TYK2.

For `Cn1nc(-c2cn(-c3c(F)cccc3F)c(=O)c3c(N)n[nH]c23)cc1C(=O)N1CCOCC1` [Example 66, 3-amino-5-(2,6-difluorophenyl)-7-(1-methyl-5-(morpholin-4-ylcarbonyl)-1H-pyrazol-3-yl)-1,5-dihydro-4H-pyrazolo[4,3-c]pyridin-4-one], the inhibition at 1 µM on JAK1 was found to be 99%; on JAK2, 99%; on JAK3, 100%; on TYK2, 100%.

Regarding `CC(C1CC1)n1cc(-c2cc(CN3CCS(=O)(=O)CC3)n(C)n2)c2[nH]nc(N)c2c1=O` (centres unmarked) [Example 9, 3-amino-5-(1-cyclopropylethyl)-7-(5-((1,1-dioxidothiomorpholin-4-yl)methyl)-1-methyl-1H-pyrazol-3-yl)-1,5-dihydro-4H-pyrazolo[4,3-c]pyridin-4-one], the inhibition at 1 µM at JAK1 came out at 98%; on JAK2 it was 99%; on JAK3 it was 100%; at TYK2 it was 99%.

Take `CC(C)[C@H](C)n1cc(-c2cc(C3(O)CCOCC3)n(C)n2)c2[nH]nc(N)c2c1=O` [Example 35, 3-amino-7-(5-(4-hydroxytetrahydro-2H-pyran-4-yl)-1-methyl-1H-pyrazol-3-yl)-5-((2S)-3-methylbutan-2-yl)-1,5-dihydro-4H-pyrazolo[4,3-c]pyridin-4-one]: the inhibition at 1 µM was 97% on JAK1, 99% on JAK2, 100% at JAK3 and 99% on TYK2.

Turning to `CC(C)[C@H](C)n1cc(-c2cc(N3CCCOCC3)n(C)n2)c2[nH]nc(N)c2c1=O` [Example 13, 3-amino-5-((2S)-3-methylbutan-2-yl)-7-(1-methyl-5-(1,4-oxazepan-4-yl)-1H-pyrazol-3-yl)-1,5-dihydro-4H-pyrazolo[4,3-c]pyridin-4-one], the inhibition at 1 µM is 97% at JAK1, 99% on JAK2, 99% at JAK3 and 100% on TYK2.

`CC(n1cc(-c2cc(N3CCOCC3)n(C)n2)c2[nH]nc(N)c2c1=O)C1(C)CC1` (centres unmarked) [Example 81, 3-amino-5-(1-(1-methylcyclopropyl)ethyl)-7-(1-methyl-5-(morpholin-4-yl)-1H-pyrazol-3-yl)-1,5-dihydro-4H-pyrazolo[4,3-c]pyridin-4-one]: the inhibition at 1 µM on JAK1 stood at 99%; on JAK2, 100%; on JAK3 it was 100%; on TYK2, 99%.

On to `CO[C@@H]1CCN(c2cc(-c3cn(C(C4CC4)C4CC4)c(=O)c4c(N)n[nH]c34)nn2C)C1` [Example 164, 3-amino-5-(dicyclopropylmethyl)-7-(5-((3R)-3-methoxypyrrolidin-1-yl)-1-methyl-1H-pyrazol-3-yl)-1,5-dihydro-4H-pyrazolo[4,3-c]pyridin-4-one], for which the inhibition at 1 µM at JAK1 was 99%; on JAK2 it was 99%; on JAK3, 100%; on TYK2 it was 101%.
